# Patent US20020107195A1, “Method for inducing chemotaxis in endothelial cells by administering stromal cell derived factor-1alpha” (SmithKline Beecham Corporation, priority 1998, published 2002)
# Entries after “also recorded” stand apart in the source; their conditions may differ. *1 amine or outer side, *2 acyl side, *3 side chain or, on linkers, in order; H or OH if unused. Where a SMILES comes first, the peptide text is derived from it. Bridges are numbered along the chain shown (N, C = ends). Roman numbers before positions name the chains, in order. [ ]: non-standard residue; d: D form. Actinocin(9to1) = Cc1c2oc3c(C)ccc(C(=O)[*:1])c3nc-2c(C(=O)[*:2])c(N)c1=O; NMeV = CN[C@H](C(=O)O)C(C)C; Sar = CNCC(=O)O
# B1: PF-4: chemokine from R&D Systems (protein, UniProt P02776 32-101, looked up)
# Platelet factor 4: EAEEDGDLQCLCVKTTSQVRPRHITSLEVIKAGPHCPTAQLIATLKNGRKICLDLQAPLYKKIIKKLLES
# B2: MIP-1α: chemokine from R&D Systems (protein, UniProt P10147 24-92, looked up)
# C-C motif chemokine 3: SLAADTPTACCFSYTSRQIPQNFIADYFETSSQCSKPGVIFLTKRSRQVCADPSEEWVQKYVSDLELSA
# B3: RANTES: chemokine from R&D Systems (protein, UniProt P13501 24-91, looked up)
# C-C motif chemokine 5: SPYSSDTTPCCFAYIARPLPRAHIKEYFYTSGKCSNPAVVFVTRKNRQVCANPEKKWVREYINSLEMS
# Experiments:
# Type in all cases: cell-based, human
# CXCR4 mRNA = test: Northern blot analysis of steady state CXCR4 mRNA levels in HUVEC treated with mediators; settings: for CXCR4 mRNA levels (normalized against GAPDH): HUVEC, after 24 hours of treatment
# Method: Total RNA (10 μg/lane) was fractionated on 1% agarose-formaldehyde gels, transferred to a nylon membrane (Amersham Corp., Piscataway, N.J.) and covalently linked with a UV crosslinker (Stratagene Inc., La Jolla, Calif.). For Northern analysis, 515-base pair size cDNA probes of CXCR1, CXCR2, CXCR3, CXCR4, CCR1, CCR2 and CCR3, were used. The GAPDH gene probe (Clontech, Palo Alto, Calif.) was used to normalize RNA sample differences in each lane. The probes were labeled with [a-^32P] dCTP using a random-prime labeling kit (Promega Corp., Madison, Wis.), and hybridized overnight at 42° C. in 6X SSC buffer (1X SSC=150 mM NaCL, 15 mM Na Citrate), .1% sodium dodecyl sulfate, 5X Denhardt's solution, 50% formamide, and 100 μg/ml denatured salmon sperm DNA. Membranes were washed with a final stringency of 0.2X SSC at 60° C., and analyzed with a phosphorimager (Molecular Dynamics, Inc., Sunnyvale, Calif.) after exposure at room temperature for 3-5 days. Densitometry was used for quantitative analysis.
# CXCR4 transcripts are well expressed in many non-hematopoietic vascular tissues like heart, brain, lung and colon. Federsppiel, et al. Genomics 16: 707-712 (1993). However, at the cellular level, this expression was selective for EC, as indicated by the failure of total RNA from human pulmonary artery smooth muscle cells (HPASMC) to hybridize with the CXCR4 cDNA probe. To understand the regulation of CXCR4 in EC during inflammation, we treated the HUVEC with various mediators and measured its steady state mRNA levels after normalization against the GAPDH cDNA probe.
# In order to understand the kinetics of inflammation mediated transcriptional regulation of CXCR4, actinomycin D was used to determine the half-life of CXCR4 mRNA. […] Many cytokines and cytokine receptors, including CXCR4, have A-U rich elements in their untranslated regions that serve as targeting motifs for transcript degradation by specific RNAses. Shaw, et al., Cell 46: 659-667 (1986). In addition to its action as a transcriptional inhibitor, actinomycin D also has the unique and immediate effect of imparting stability to existing transcripts of mRNA undergoing rapid turnover.
# HUVEC [1] = test: HUVEC migration (chemotaxis) assay, Transwell; settings: for effect on EC chemotaxis: HUVEC
# Method: HUVEC migration assay was performed using 5×10^5 cells/well (in CS-C medium) in the top chamber of a 6.5 mm diameter, 8-μM pore polycarbonate Transwell culture insert (Costar, Cambridge, Mass.) as reported previously (36). Incubation was carried out at 37° C. in 5% CO2 for 20 hrs. After incubation, migrated cells in the lower chamber were counted with a ZM Coulter counter (Coulter Diagnostics, Hialeah, Fla.). Percent migration was calculated based on the total initial input cells per well.
# The Applicant next studied the chemotactic response of EC to SDF-1α. SDF-1α induced a pronounced migration of ˜40% of input EC in a concentration-related manner with an EC50 of 10-20 nM. It is intriguing to observe the high percentage of EC that migrated in response to SDF-1α, even though EC have limited migratory capability in comparison with neutrophils and monocytes. In contrast with other EC chemo-attractants like vitronectin, the chemotactic response to SDF-1α was kinetically robust, and a majority of the migrated cells entered the lower chamber without adhering to the Transwell filter. In these experiments, other chemokines like γ-IP10, IL-8, MIP-1α, MCP-1, eotaxin and RANTES had no effect on EC chemotaxis. Taken together, these observations have obvious biological significance, in that they indicate that SDF-1α plays a role in re-endothelialization after injury, an event that requires the directed migration of EC.
# HUVEC [2] = test: Measurement of intracellular calcium [Ca2+]i in EC (fura-2); settings: for elevation of [Ca+2]i (mobilization of intracellular Ca2+): HUVEC / EC
# Method: For measurements of intracellular calcium [Ca^2+]i, EC were loaded with 2 μM fura-2/AM (Molecular Probes, Eugene, OR), rinsed with 1 mM EDTA in Dulbecco's PBS, and resuspended into Kreb's Ringer's Henseleit (KRH) buffer, pH 7.4, containing 0.1% gelatin. Cells (1x 10^6/ml) were stored on ice and diluted for use 1:1 with fresh KRH buffer at 37° C. Fluorescence of fura-2 in cells was measured with a University of Pennsylvania Biomedical Instruments Group dual channel fluorometer. Data was captured as voltage recordings with the aid of a PC and analyzed by Igor version 1.28 software (WaveMetrics, Lake Oswego, Oreg.). Chemokines were added from concentrated stocks in water. To establish the integrity of EC, we also measured [Ca^2+]i stimulated by thrombin.
# To determine whether the human EC express a functional CXCR4 receptor, our subsequent studies used SDF-1α along with several other chemokines to assess their ability to induce changes in intracellular levels of Ca^+2 and cause migration. […] In contrast, other chemokines like γ-IP10, IL-8, PF-4, MIP-1α, MCP-1, eotaxin and RANTES had no effect on EC.
Molecule,CXCR4 mRNA levels (normalized against GAPDH) (CXCR4 mRNA),effect on EC chemotaxis (HUVEC [1]),elevation of [Ca+2]i (mobilization of intracellular Ca2+) (HUVEC [2]),other results
"Cc1c2oc3c(C)ccc(C(=O)N[C@@H]4C(=O)N[C@H](C(C)C)C(=O)N5CCC[C@H]5C(=O)N(C)CC(=O)N(C)[C@@H](C(C)C)C(=O)O[C@@H]4C)c3nc-2c(C(=O)N[C@@H]2C(=O)N[C@H](C(C)C)C(=O)N3CCC[C@H]3C(=O)N(C)CC(=O)N(C)[C@@H](C(C)C)C(=O)O[C@@H]2C)c(N)c1=O [actinomycin D] (I: T[dV]P[Sar][NMeV] / II: T[dV]P[Sar][NMeV]; ester I:1-I:C, II:1-II:C; linker I:N-II:N via Actinocin(9to1))",almost complete abrogation,–,–,"steady state levels of CXCR4 mRNA after short term exposure (CXCR4 mRNA; EC cultures, exposure of only 15-30 minutes): sharply increasing"
IFN-γ: recombinant human IFN-γ purchased from Genzyme,decrease,–,–,–
IL-1β: recombinant human IL-1β purchased from Genzyme,significant induction,–,–,–
IL-8: chemokine from R&D Systems,–,no effect,no effect,–
MCP-1: chemokine from R&D Systems,–,no effect,no effect,–
"SDF-1α: stromal cell derived factor-1α, polypeptide of SEQ ID NO:4, CXC chemokine ligand of CXCR4; obtained from Gryphon Sciences",–,–,"rapid, though variable elevation; also recorded: induced a rapid mobilization","migration, percent of input EC (HUVEC [1]; 20 hrs incubation, Transwell): ~40%; EC50 (HUVEC [1]; concentration-related migration of EC): 10 to 20 nM; concentration of maximal [Ca+2]i response (HUVEC [2]; HUVEC): 100 nM"
TGF-β,no effect,–,–,–
TNF-α,"to a lesser extent, TNF-α, caused a decrease",–,–,–
eotaxin: chemokine from R&D Systems,–,no effect,no effect,–
γ-IP10: chemokine from R&D Systems,no effect,no effect,no effect,–
B1,–,–,no effect,–
B2,–,no effect,no effect,–
B3,–,no effect,no effect,–
